# Reference: patent US20240067693A1, “POLYPEPTIDES AND USES THEREOF” (MEDIMMUNE LIMITED, priority 2020, published 2024)
# Numbered stars: 1 amine (or outer) side, 2 acyl side, 3 side chain; on linkers, the order of the positions; unused ones are H or OH. Bridge positions count the residues as written; N and C are the ends. Square brackets hold non-standard residues; d marks the D form. Side chains are listed from the residue outwards. Peptide text beside a SMILES is read from it. * marks the point of attachment. C18 diacid = O=C(O)CCCCCCCCCCCCCCCCC(=O)*; γGlu = O=C(O)[C@H](CCC(=O)[*:2])N[*:1]; Aib = CC(C)(N)C(=O)O
# Legend:
# [1] = molecular target: T1, human calcitonin receptor (hCTR) (Homo sapiens, UniProt P30988); assay: cAMP production in 1321N1 cells with stable recombinant expression of human calcitonin receptor (hCTR); type: cell-based; details: cAMP, 1321N1 cells, assay buffer with 0.1% BSA; read-out: EC50 (pM) hCTR
# T1 construct: expressed in transfected cells
# T1 sequence (P30988 25-474): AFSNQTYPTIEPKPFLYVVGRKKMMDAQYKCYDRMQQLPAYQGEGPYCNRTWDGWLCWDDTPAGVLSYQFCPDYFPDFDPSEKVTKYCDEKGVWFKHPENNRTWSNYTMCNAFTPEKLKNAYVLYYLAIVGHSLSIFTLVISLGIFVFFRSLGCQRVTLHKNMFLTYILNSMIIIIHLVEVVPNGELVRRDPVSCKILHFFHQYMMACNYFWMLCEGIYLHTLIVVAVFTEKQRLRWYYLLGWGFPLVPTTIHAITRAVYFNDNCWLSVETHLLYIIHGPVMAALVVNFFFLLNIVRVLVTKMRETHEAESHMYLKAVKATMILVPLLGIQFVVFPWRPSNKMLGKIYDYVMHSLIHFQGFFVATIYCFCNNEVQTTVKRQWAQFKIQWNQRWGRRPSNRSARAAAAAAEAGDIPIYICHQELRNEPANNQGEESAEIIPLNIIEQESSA
# Procedure, shortened: (§1)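 Receptor-expressing cells (human receptors in 1321N1, rat receptors in HEK) incubated 30 min at room temperature with peptide in HBSS/HEPES pH 7.4, 0.1% BSA, 0.5 mM IBMX. cAMP read by HTRF; EC50 from 4-parameter fit as % of maximal amylin or calcitonin response.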
# [2] = molecular target: T2, human amylin receptor (calcitonin receptor co-expressed with receptor activity modifying protein, RAMP3) (hAMYR3) (Homo sapiens, UniProt O60896+P30988); assay: cAMP production in 1321N1 cells with stable recombinant expression of human amylin receptor (hAMYR3); type: cell-based; details: for Ratio (selectivity hAMYR vs hCTR, ratio of EC50 values at the two receptors): EC50 hCTR / EC50 hAMYR3; for EC50: cAMP, 1321N1 cells, assay buffer with 0.1% BSA, read-out: EC50 (pM) hAMYR3
# T2 construct: expressed in transfected cells
# T2 sequence (P30988 25-474): T1 sequence (P30988 25-474)
# T2 sequence (O60896 24-148 partner): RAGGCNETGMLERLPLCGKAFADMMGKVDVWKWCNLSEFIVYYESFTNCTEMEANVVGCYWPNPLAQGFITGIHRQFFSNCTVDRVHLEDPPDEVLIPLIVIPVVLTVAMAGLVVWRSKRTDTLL
# Procedure, shortened: as §1
EC50 [1] [pM],"Ratio (selectivity hAMYR vs hCTR, ratio of EC50 values at the two receptors) [2]",EC50 [2] [pM],Structure (SMILES)
1770,9,192,"CC[C@H](C)[C@H](NC(=O)[C@@H]1CCCN1C(=O)CNC(=O)[C@H](Cc1ccccc1)NC(=O)[C@H](CC(N)=O)NC(=O)C(C)(C)NC(=O)[C@H](CO)NC(=O)[C@H](CO)NC(=O)[C@H](Cc1c[nH]cn1)NC(=O)[C@@H](NC(=O)[C@H](CC(C)C)NC(=O)[C@H](Cc1ccccc1)NC(=O)[C@H](CC(N)=O)NC(=O)[C@H](C)NC(=O)[C@H](CC(C)C)NC(=O)[C@H](CCCNC(=N)N)NC(=O)[C@H](CCC(N)=O)NC(=O)[C@@H](NC(=O)[C@H](C)NC(=O)[C@@H]1CSSC[C@H](NC(=O)CC[C@H](NC(=O)CCCCCCCCCCCCCCCCC(=O)O)C(=O)O)C(=O)N[C@@H](CC(N)=O)C(=O)N[C@@H]([C@@H](C)O)C(=O)N[C@@H](C)C(=O)N[C@@H]([C@@H](C)O)C(=O)N1)[C@@H](C)O)C(C)C)C(=O)N[C@@H](CC(C)C)C(=O)N1CCC[C@H]1C(=O)N1CCC[C@H]1C(=O)N[C@H](C(=O)N[C@@H](CCCNC(=N)N)C(=O)N[C@H](C(=O)NCC(=O)N[C@@H](CO)C(=O)N[C@@H](CC(N)=O)C(=O)N[C@H](C(=O)N[C@@H](Cc1ccc(O)cc1)C(N)=O)[C@@H](C)O)C(C)C)[C@@H](C)O [Peptide 68, (C18diacid-γE-[CNTATC]ATQRLANFLVHSS(Aib)NFGPILPPTRVGSNTY-amide] ({C18 diacid-γGlu}-CNTATCATQRLANFLVHSS[Aib]NFGPILPPTRVGSNTY-NH2; disulfide 1-6)"
3100,4,806,"CC[C@H](C)[C@H](NC(=O)[C@@H]1CCCN1C(=O)CNC(=O)[C@H](Cc1ccccc1)NC(=O)[C@H](CC(N)=O)NC(=O)C(C)(C)NC(=O)[C@H](CO)NC(=O)[C@H](CO)NC(=O)[C@H](Cc1c[nH]cn1)NC(=O)[C@@H](NC(=O)[C@H](CC(C)C)NC(=O)[C@H](Cc1ccccc1)NC(=O)[C@H](CC(N)=O)NC(=O)[C@H](C)NC(=O)[C@H](CC(C)C)NC(=O)[C@H](CCCNC(=N)N)NC(=O)[C@H](CCC(N)=O)NC(=O)[C@@H](NC(=O)[C@H](C)NC(=O)[C@@H]1CSSC[C@H](NC(=O)[C@H](CCCCN)NC(=O)[C@@H](N)CCCCNC(=O)CC[C@H](NC(=O)CCCCCCCCCCCCCCCCC(=O)O)C(=O)O)C(=O)N[C@@H](CC(N)=O)C(=O)N[C@@H]([C@@H](C)O)C(=O)N[C@@H](C)C(=O)N[C@@H]([C@@H](C)O)C(=O)N1)[C@@H](C)O)C(C)C)C(=O)N[C@@H](CC(C)C)C(=O)N1CCC[C@H]1C(=O)N1CCC[C@H]1C(=O)N[C@H](C(=O)N[C@@H](CC(N)=O)C(=O)N[C@H](C(=O)NCC(=O)N[C@@H](CO)C(=O)N[C@@H](CC(N)=O)C(=O)N[C@H](C(=O)NC(C)(C)C(N)=O)[C@@H](C)O)C(C)C)[C@@H](C)O [Peptide 85, K(γE-C18diacid)K[CNTATC]ATQRLANFLVHSS(Aib)NFGPILPPTNVGSNT(Aib)-amide] (H-K([γGlu-C18 diacid])KCNTATCATQRLANFLVHSS[Aib]NFGPILPPTNVGSNT[Aib]-NH2; disulfide 3-8; N-terminus assumed)"
